# Biological target: human PAD4 (hPAD4) (Homo sapiens, UniProt Q9UM07)
# Assay: RFMS Human PAD4 Functional Assay
# Type: biochemical
# Conditions: hPAD4 RFMS IC50, human PAD4, rapid-fire mass spectrum (RFMS) assay; 5 nM hPAD4, 250 μM BAEE
# How it was run: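 RapidFire ESI-MS quantification, normalised to a modified-citrulline internal standard, after phenyl glyoxal (final 4 mM) derivatisation of the TCA-quenched reaction. The enzyme (10 nM) sat 30 min with compound (up to 50 μM final) before 500 μM BAEE (as added) started a 90 min, 37 °C reaction. Buffer: HEPES pH 7.5, 50 μM calcium, 5 μM TPEN.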
# Sequence of human PAD4 (hPAD4) (Q9UM07 whole entry): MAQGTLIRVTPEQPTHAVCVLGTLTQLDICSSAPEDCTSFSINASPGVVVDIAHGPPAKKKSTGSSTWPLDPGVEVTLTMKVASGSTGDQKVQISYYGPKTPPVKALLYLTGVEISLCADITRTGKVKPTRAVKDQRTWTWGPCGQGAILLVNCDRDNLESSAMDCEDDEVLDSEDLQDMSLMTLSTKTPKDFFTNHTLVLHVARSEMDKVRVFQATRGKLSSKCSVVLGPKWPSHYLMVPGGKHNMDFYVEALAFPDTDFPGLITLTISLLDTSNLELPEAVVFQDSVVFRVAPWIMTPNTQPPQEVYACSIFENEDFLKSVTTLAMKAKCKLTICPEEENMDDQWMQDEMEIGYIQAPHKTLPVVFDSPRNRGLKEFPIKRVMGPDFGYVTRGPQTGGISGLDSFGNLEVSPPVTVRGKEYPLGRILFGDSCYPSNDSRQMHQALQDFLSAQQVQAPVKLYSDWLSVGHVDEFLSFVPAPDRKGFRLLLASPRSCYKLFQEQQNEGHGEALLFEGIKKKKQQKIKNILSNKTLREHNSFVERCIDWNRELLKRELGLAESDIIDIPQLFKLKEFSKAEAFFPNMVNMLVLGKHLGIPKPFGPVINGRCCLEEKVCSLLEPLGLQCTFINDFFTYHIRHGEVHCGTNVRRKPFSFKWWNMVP
row,SMILES,IC50 [nM]
1,"COc1cc(C(=O)N2C[C@H]3CC[C@@H]2[C@@H]3N)cc2nc(-c3cc4cccc(C5CC(C(=O)N(C)C)C5)c4n3CC3CC3)n(C)c12 (single isomer, unassigned) [Example 47]",13
2,"COc1cc(C(=O)N2C[C@H]3CC[C@@H]2[C@@H]3N)cc2nc(-c3cc4cccc(C5CN(C(=O)C(C)(C)O)C5)c4n3CC3CC3)n(C)c12 [Example 69, 1-[3-(2-{5-[(1R,4R,7R)-7-amino-2-azabicyclo[2.2.1]heptane-2-carbonyl]-7-methoxy-1-methyl-1H-1,3-benzodiazol-2-yl}-1-(cyclopropylmethyl)-1H-indol-7-yl)azetidin-1-yl]-2-hydroxy-2-methylpropan-1-one]",50
3,"COc1cc(C(=O)N2C[C@H]3CC[C@@H]2[C@@H]3N)cc2nc(-c3cc4cccc(C5CCN(C(=O)COC(C)C)CC5)c4n3CC3CC3)n(C)c12 [Example 239, 1-(4-(2-(5-((1R,4R,7R)-7-amino-2-azabicyclo[2.2.1]heptane-2-carbonyl)-7-methoxy-1-methyl-1H-benzo[d]imidazol-2-yl)-1-(cyclopropylmethyl)-1H-indol-7-yl)piperidin-1-yl)-2-isopropoxyethan-1-one]",119
4,"COCC(=O)N1CCC(c2cccc3cc(-c4nc5cc(C(=O)N6C[C@H]7CC[C@@H]6[C@@H]7N)cc(OC)c5n4C)n(CC4CC4)c23)CC1 [Example 230, 1-(4-(2-(5-((1R,4R,7R)-7-amino-2-azabicyclo[2.2.1]heptane-2-carbonyl)-7-methoxy-1-methyl-1H-benzo[d]imidazol-2-yl)-1-(cyclopropylmethyl)-1H-indol-7-yl)piperidin-1-yl)-2-methoxyethan-1-one]",21
5,"COc1cc(C(=O)N2C[C@H]3CC[C@@H]2[C@@H]3N)cc2nc(-c3cc4cccc(C5CCS(=O)(=O)C5)c4n3CC3CC3)n(C)c12 (stereo partly drawn) [Example 30, ((1R,4R,7R)-7-amino-2-azabicyclo[2.2.1]heptan-2-yl)(2-(1-(cyclopropylmethyl)-7-(1,1-dioxidotetrahydrothiophen-3-yl)-1H-indol-2-yl)-7-methoxy-1-methyl-1H-benzo[d]imidazol-5-yl)methanone]",80
6,"COc1cc(C(=O)N2C[C@H]3CC[C@@H]2[C@@H]3N)cc2nc(-c3cc4cccc(C5CNC5)c4n3CC3CC3)n(C)c12 [Example 8, (1R,4R,7R)-2-{2-[7-(azetidin-3-yl)-1-(cyclopropylmethyl)-1H-indol-2-yl]-7-methoxy-1-methyl-1H-1,3-benzodiazole-5-carbonyl}-2-azabicyclo[2.2.1]heptan-7-amine]",73
7,"COc1cc(C(=O)N2C[C@H]3CC[C@@H]2[C@@H]3N)cc2nc(-c3cc4cccc(C5CCN(C(=O)OCc6ccccc6)C5)c4n3CC3CC3)n(C)c12 (stereo partly drawn) [Example 28, benzyl 3-(2-{5-[(1R,4R,7R)-7-amino-2-azabicyclo[2.2.1]heptane-2-carbonyl]-7-methoxy-1-methyl-1H-1,3-benzodiazol-2-yl}-1-(cyclopropylmethyl)-1H-indol-7-yl)pyrrolidine-1-carboxylate]",67
8,"COc1cc(C(=O)N2C[C@H]3CC[C@@H]2[C@@H]3N)cc2nc(-c3cc4cccc(C5CN(C(=O)Cc6cnccn6)C5)c4n3CC3CC3)n(C)c12 [Example 76, 1-[3-(2-{5-[(1R,4R,7R)-7-amino-2-azabicyclo[2.2.1]heptane-2-carbonyl]-7-methoxy-1-methyl-1H-1,3-benzodiazol-2-yl}-1-(cyclopropylmethyl)-1H-indol-7-yl)azetidin-1-yl]-2-(pyrazin-2-yl)ethan-1-one]",19

# Next, values leading:
row,IC50 [nM],SMILES
1,38,"COc1cc(C(=O)N2C[C@H]3CC[C@@H]2[C@@H]3N)cc2nc(-c3cc4cccc(C[C@H]5CC[C@H](N)CC5)c4n3CC3CC3)n(C)c12 [Example 14, ((1R,4R,7R)-7-amino-2-azabicyclo[2.2.1]heptan-2-yl)(2-(7-(((trans)-4-aminocyclohexyl)methyl)-1-(cyclopropylmethyl)-1H-indol-2-yl)-7-methoxy-1-methyl-1H-benzo[d]imidazol-5-yl)methanone]"
2,170,"COc1cc(C(=O)N2C[C@H]3CC[C@@H]2[C@@H]3N)cc2nc(-c3cc4cccc(C5CN(C(=O)CCC(=O)O)C5)c4n3CC3CC3)n(C)c12 [Example 68, 4-[3-(2-{5-[(1R,4R,7R)-7-amino-2-azabicyclo[2.2.1]heptane-2-carbonyl]-7-methoxy-1-methyl-1H-1,3-benzodiazol-2-yl}-1-(cyclopropylmethyl)-1H-indol-7-yl)azetidin-1-yl]-4-oxobutanoic acid]"
3,101,"COc1cc(C(=O)N2C[C@H]3CC[C@@H]2[C@@H]3N)cc2nc(-c3cc4cccc(-c5cnn(CCO)c5)c4n3CC3CC3)n(C)c12 [Example 141, ((R,4R,7R)-7-amino-2-azabicyclo[2.2.1]heptan-2-yl)(2-(1-(cyclopropylmethyl)-7-(1-(2-hydroxyethyl)-1H-pyrazol-4-yl)-1H-indol-2-yl)-7-methoxy-1-methyl-1H-benzo[d]imidazol-5-yl)methanone]"
4,81,"COc1cc(C(=O)N2C[C@H]3CC[C@@H]2[C@@H]3N)cc2nc(-c3cc4cccc(C5CC(C(=O)N6CCCC6)C5)c4n3CC3CC3)n(C)c12 (single isomer, unassigned) [Example 50]"
5,187,"CCCc1cccc2cc(-c3nc4cc(C(=O)N5C[C@H]6CC[C@@H]5[C@@H]6N)cc(OC)c4n3C)n(CC3CC3)c12 [Example 5, (1R,4R,7R)-2-{2-[1-(cyclopropylmethyl)-7-propyl-1H-indol-2-yl]-7-methoxy-1-methyl-1H-1,3-benzodiazole-5-carbonyl}-2-azabicyclo[2.2.1]heptan-7-amine]"
6,94,"COc1cc(C(=O)N2C[C@H]3CC[C@@H]2[C@@H]3N)cc2nc(-c3cc4cccc(-c5cccc(C(O)CO)c5)c4n3CC3CC3)n(C)c12 (stereo partly drawn) [Example 222, ((1R,4R,7R)-7-amino-2-azabicyclo[2.2.1]heptan-2-yl)(2-(1-(cyclopropylmethyl)-7-(3-(1,2-dihydroxyethyl)phenyl)-1H-indol-2-yl)-7-methoxy-1-methyl-1H-benzo[d]imidazol-5-yl)methanone]"
7,47,"COC(=O)c1cc(=O)[nH]c2ccc(-c3cccc4cc(-c5nc6cc(C(=O)N7C[C@H]8CC[C@@H]7[C@@H]8N)cc(OC)c6n5C)n(CC5CC5)c34)cc12 [Example 101, methyl 6-(2-{5-[(1R,4R,7R)-7-amino-2-azabicyclo[2.2.1]heptane-2-carbonyl]-7-methoxy-1-methyl-1H-1,3-benzodiazol-2-yl}-1-(cyclopropylmethyl)-1H-indol-7-yl)-2-oxo-1,2-dihydroquinoline-4-carboxylate]"
8,59,"COc1cc(C(=O)N2C[C@H]3CC[C@@H]2[C@@H]3N)cc2nc(-c3cc4cccc(NC5CCN(C)CC5)c4n3CC3CC3)n(C)c12 [Example 170, ((1R,4R,7R)-7-amino-2-azabicyclo[2.2.1]heptan-2-yl)(2-(1-(cyclopropylmethyl)-7-((1-methylpiperidin-4-yl)amino)-1H-indol-2-yl)-7-methoxy-1-methyl-1H-benzo[d]imidazol-5-yl)methanone]"
9,139,"COc1cc2c(cc1-c1cccc3cc(-c4nc5cc(C(=O)N6C[C@H]7CC[C@@H]6[C@@H]7N)cc(OC)c5n4C)n(CC4CC4)c13)CCC(=O)N2 [Example 204, 6-(2-(5-((1R,4R,7R)-7-amino-2-azabicyclo[2.2.1]heptane-2-carbonyl)-7-methoxy-1-methyl-1H-benzo[d]imidazol-2-yl)-1-(cyclopropylmethyl)-1H-indol-7-yl)-7-methoxy-3,4-dihydroquinolin-2(1H)-one]"
10,27,"COc1cc(C(=O)N2C[C@H]3CC[C@@H]2[C@@H]3N)cc2nc(-c3cc4cccc(Nc5c(C)nn(C)c5C)c4n3CC3CC3C)n(C)c12 (stereo partly drawn) [Example 180, ((1R,4R,7R)-7-amino-2-azabicyclo[2.2.1]heptan-2-yl)(7-methoxy-1-methyl-2-(1-((2-methylcyclopropyl)meth-yl)-7-((1,3,5-trimethyl-1H-pyrazol-4-yl)amino)-1H-indol-2-yl)-1H-benzo[d]imidazol-5-yl)methanone]"

# Same assay, conditions: human PAD4, rapid-fire mass spectrum (RFMS) assay; 5 nM hPAD4, 250 μM BAEE; read-out: hPAD4 RFMS IC50
row,IC50 [nM],SMILES
1,10,"COc1cc(C(=O)N2C[C@H]3CC[C@@H]2[C@@H]3N)cc2nc(-c3cc4cccc(C5CC(NC(C)=O)C5)c4n3CC3CC3)n(C)c12 (stereo partly drawn) [Example 57, N-[3-(2-{5-[(1R,4R,7R)-7-amino-2-azabicyclo[2.2.1]heptane-2-carbonyl]-7-methoxy-1-methyl-1H-1,3-benzodiazol-2-yl}-1-(cyclopropylmethyl)-1H-indol-7-yl)cyclobutyl]acetamide]"
2,24,"COc1cc(C(=O)N2C[C@H]3CC[C@@H]2[C@@H]3N)cc2nc(-c3cc4cccc(C5CN(C(=O)CN)C5)c4n3CC3CC3)n(C)c12 [Example 65, 2-amino-1-[3-(2-{5-[(1R,4R,7R)-7-amino-2-azabicyclo[2.2.1]heptane-2-carbonyl]-7-methoxy-1-methyl-1H-1,3-benzodiazol-2-yl}-1-(cyclopropylmethyl)-1H-indol-7-yl)azetidin-1-yl]ethan-1-one]"
3,145,"CNC(=O)C1CC(c2cccc3cc(-c4nc5cc(C(=O)N6C[C@H](N)C[C@@H](F)C6)cc(OC)c5n4C)n(CC4CC4)c23)C1 (single isomer, unassigned) [Example 112]"
4,137,"COc1cc(C(=O)N2C[C@H]3CC[C@@H]2[C@@H]3N)cc2nc(-c3cc4cccc(-n5cc(C6CNC6)nn5)c4n3CC3CC3)n(C)c12 [Example 110, (1R,4R,7R)-2-(2-{7-[4-(azetidin-3-yl)-1H-1,2,3-triazol-1-yl]-1-(cyclopropylmethyl)-1H-indol-2-yl}-7-methoxy-1-methyl-1H-1,3-benzodiazole-5-carbonyl)-2-azabicyclo[2.2.1]heptan-7-amine]"
